Laboratory results taken from patent US5583115A, “Dialkyltiacumicin compounds” (Abbott Laboratories, priority 1995, dated 1996).
≈ marks a conversion by molar mass, not a printed value.

Key:
P. species = test: MIC agar dilution, anaerobic bacteria; format: cell-based; conditions: Culture # 1776
[1] = system: Acinetobacter calcoaceticus; test: MIC agar dilution, aerobic and facultative bacteria; conditions: Culture # 1845
P. cepacia = test: as above; conditions: Culture # 1684
S. epidermidis = test: as above; conditions: Culture # 1666
Clostridium perfringens = test: microbe, parasite or virus in culture; format: cell-based
B. loescheii = test: MIC agar dilution, anaerobic bacteria; format: cell-based; conditions: Culture # 1767
B. thetaiotaomicron = test: MIC agar dilution, anaerobic bacteria; format: cell-based
Nocardia asteroides = test: MIC agar dilution, aerobic and facultative bacteria; conditions: Culture # 5173
Providencia stuartii = test: as above; conditions: Culture # 1831
[2] = system: Peptostreptococcus asaccharolyticus; test: MIC agar dilution, anaerobic bacteria; format: cell-based; conditions: Culture # 1777
Klebsiella pneumoniae = test: MIC agar dilution, aerobic and facultative bacteria; conditions: Culture # 2518
Staphylococcus aureus = test: as above
S. pyogenes = test: as above
E. coli = test: as above; format: cell-based
[3] = system: anaerobic pathogens, in particular Clostridium species; test: In vitro activity against anaerobic pathogens, Wilkins-Chalgren agar; format: cell-based; conditions: MIC, Table 2
Source text: It has now been established that novel antimicrobial agents may be obtained by chemical modification of tiacumicins, which are antibiotics isolated from the fermentation broth and mycelium of Dactylosporangium aurantiacum subsp. hamdenensis subsp. nov. Tiacumicin antibiotics are described in U.S. Pat. No. 4,918,174 (issued Apr. 17, 1990 and incorporated herein by reference), and comprise the compounds tiacumicin A, tiacumicin B, tiacumicin C, tiacumicin D, tiacumicin E and tiacumicin F. The compounds of the present invention, which are derivatives of the above tiacumicins, are found to have in vitro activity against a variety of bacterial pathogens and in particular against Clostridium when evaluated in an assay utilizing Wilkins-Chalgren agar in anaerobic conditions. It is therefore expected that these compounds will be useful in the treatment of bacterial infections in mammals, and in particular in the treatment of certain instances of colitis.

B. disiens = test: MIC agar dilution, anaerobic bacteria; format: cell-based; conditions: Culture # 1763
Pseudomonas aeruginosa = test: MIC agar dilution, aerobic and facultative bacteria
B. vulgatus = test: MIC agar dilution, anaerobic bacteria; format: cell-based
Streptococcus agalactiae = test: MIC agar dilution, aerobic and facultative bacteria; conditions: Culture # 1670
Enterococcus faecium = test: as above; conditions: Culture # 1668
C. difficile = test: MIC agar dilution, anaerobic bacteria; format: cell-based
Fusobacterium species = test: MIC agar dilution, anaerobic bacteria; format: cell-based; conditions: Culture # 1770
Fusobacterium nucleatum = test: MIC agar dilution, anaerobic bacteria; format: cell-based; conditions: Culture # 2478
C. ramosum = test: MIC agar dilution, anaerobic bacteria; format: cell-based; conditions: Culture # 2482
P. magnus = test: MIC agar dilution, anaerobic bacteria; format: cell-based; conditions: Culture # 1778
Propionibacterium acnes = test: MIC agar dilution, anaerobic bacteria; format: cell-based; conditions: Culture # 1775
P. anaerobius = test: MIC agar dilution, anaerobic bacteria; format: cell-based; conditions: Culture # 1780
B. bivius = test: MIC agar dilution, anaerobic bacteria; format: cell-based; conditions: Culture # 2483
Candida albicans = test: MIC agar dilution, aerobic and facultative bacteria; conditions: Culture # 3622
Micrococcus luteus = test: as above
Enterobacter aerogenes = test: as above; conditions: Culture # 1677
Streptococcus bovis = test: as above; conditions: Culture # 1699
Bacteriodes fragilis = test: MIC agar dilution, anaerobic bacteria; format: cell-based

Q: Which MIC (P. species) does the source give for `CCc1c(Cl)c(OC)c(Cl)c(OC)c1C(=O)OC1C(C)OC(OCC2=CC=CCC(O)C(C)=CC(CC)C(OC3OC(C)(C)C(OC(=O)C(C)C)C(O)C3O)C(C)=CC(C)=CCC(C(C)O)OC2=O)C(OC)C1O` (centres unmarked) [Example 2, 3"', 5"'-Di-O-methyltiacumicin B] here?
A: Its MIC is > 2 µg/mL.

Q: What about the MIC [1] of the same molecule?
A: The MIC was > 100 µg/mL.

Q: What about the MIC (P. cepacia) of the same molecule?
A: Its MIC is > 100 µg/mL.

Q: And the MIC (S. epidermidis)?
A: Its MIC is 50 µg/mL (≈ 46 µM).

Q: What about the MIC (Clostridium perfringens; Culture # 1771) of the same molecule?
A: Its MIC is 0.06 µg/mL (≈ 0.0552 µM).

Q: What about the MIC (Clostridium perfringens; Culture # 1772) of the same molecule?
A: The MIC was 0.06 µg/mL (≈ 0.0552 µM).

Q: What about the MIC (Clostridium perfringens; Culture # 1773) of the same molecule?
A: The MIC was 0.06 µg/mL (≈ 0.0552 µM).

Q: And the MIC (B. loescheii)?
A: The MIC was > 2 µg/mL.

Q: What about the MIC (B. thetaiotaomicron; Culture # 1764) of the same molecule?
A: The MIC was > 2 µg/mL.

Q: And the MIC (B. thetaiotaomicron; Culture # 1765)?
A: Its MIC is > 2 µg/mL.

Q: What about the MIC (B. thetaiotaomicron; Culture # 1766) of the same molecule?
A: Its MIC is > 2 µg/mL.

Q: What about the MIC (Nocardia asteroides) of the same molecule?
A: The MIC was 0.39 µg/mL (≈ 0.359 µM).

Q: And the MIC (Providencia stuartii)?
A: Its MIC is > 100 µg/mL.

Q: And the MIC [2]?
A: The MIC was > 2 µg/mL.

Q: What about the MIC (Klebsiella pneumoniae) of the same molecule?
A: The MIC was > 100 µg/mL.

Q: What about the MIC (Staphylococcus aureus; Culture # 1662, brain heart infusion agar, 37° C., 20 hours) of the same molecule?
A: Its MIC is 100 µg/mL (≈ 92.1 µM).

Q: And the MIC (Staphylococcus aureus; Culture # 1664)?
A: Its MIC is 50 µg/mL (≈ 46 µM).

Q: What about the MIC (Staphylococcus aureus; Culture # 1690) of the same molecule?
A: The MIC was 100 µg/mL (≈ 92.1 µM).

Q: And the MIC (Staphylococcus aureus; Culture # 2124)?
A: Its MIC is > 100 µg/mL.

Q: And the MIC (Staphylococcus aureus; Culture # 2130)?
A: The MIC was > 100 µg/mL.

Q: What about the MIC (Staphylococcus aureus; Culture # 2498) of the same molecule?
A: The MIC was > 100 µg/mL.

Q: What about the MIC (Staphylococcus aureus; cipro res., Culture # 3384) of the same molecule?
A: Its MIC is 100 µg/mL (≈ 92.1 µM).

Q: What about the MIC (S. pyogenes; Culture # 1671) of the same molecule?
A: The MIC was > 100 µg/mL.

Q: And the MIC (S. pyogenes; const., Culture # 1672)?
A: Its MIC is 25 µg/mL (≈ 23 µM).

Q: What about the MIC (S. pyogenes; inducible, Culture # 2548) of the same molecule?
A: Its MIC is 25 µg/mL (≈ 23 µM).

Q: What about the MIC (E. coli; DC-2, Culture # 1674) of the same molecule?
A: The MIC was > 100 µg/mL.

Q: What about the MIC (E. coli; H560, Culture # 1675) of the same molecule?
A: Its MIC is > 100 µg/mL.

Q: What about the MIC (E. coli; Juhl, Culture # 1673) of the same molecule?
A: The MIC was > 100 µg/mL.

Q: What about the MIC (E. coli; KNK437, Culture # 1676) of the same molecule?
A: Its MIC is > 100 µg/mL.

Q: And the MIC (E. coli; SS, Culture # 2489)?
A: Its MIC is > 100 µg/mL.

Q: What about the “activity against anaerobic pathogens” value [3] of the same molecule?
A: The value was “substantial activity against anaerobic pathogens and in particular against Clostridium species”.

Q: And the MIC (B. disiens)?
A: Its MIC is > 2 µg/mL.

Q: And the MIC (Pseudomonas aeruginosa; Culture # 1679)?
A: Its MIC is > 100 µg/mL.

Q: And the MIC (Pseudomonas aeruginosa; Culture # 1680)?
A: Its MIC is > 100 µg/mL.

Q: And the MIC (Pseudomonas aeruginosa; Culture # 1681)?
A: The MIC was > 100 µg/mL.

Q: What about the MIC (Pseudomonas aeruginosa; Culture # 1682) of the same molecule?
A: The MIC was 100 µg/mL (≈ 92.1 µM).

Q: What about the MIC (Pseudomonas aeruginosa; cipro R, Culture # 1919) of the same molecule?
A: Its MIC is > 100 µg/mL.

Q: What about the MIC (Pseudomonas aeruginosa; cipro R, Culture # 1920) of the same molecule?
A: Its MIC is > 100 µg/mL.

Q: What about the MIC (B. vulgatus; Culture # 1762) of the same molecule?
A: The MIC was > 2 µg/mL.

Q: And the MIC (B. vulgatus; Culture # 2481)?
A: The MIC was > 2 µg/mL.

Q: What about the MIC (Streptococcus agalactiae) of the same molecule?
A: Its MIC is > 100 µg/mL.

Q: What about the MIC (Enterococcus faecium) of the same molecule?
A: The MIC was > 100 µg/mL.

Q: What about the MIC (C. difficile; Culture # 1496) of the same molecule?
A: Its MIC is 0.25 µg/mL (≈ 0.23 µM).

Q: And the MIC (C. difficile; Culture # 1497)?
A: Its MIC is 0.5 µg/mL (≈ 0.46 µM).

Q: What about the MIC (C. difficile; Culture # 1774) of the same molecule?
A: Its MIC is 0.25 µg/mL (≈ 0.23 µM).

Q: What about the MIC (C. difficile; Culture # 2025) of the same molecule?
A: Its MIC is 0.5 µg/mL (≈ 0.46 µM).

Q: What about the MIC (C. difficile; Culture # 2480) of the same molecule?
A: Its MIC is 0.25 µg/mL (≈ 0.23 µM).

Q: And the MIC (C. difficile; Culture # 2528)?
A: The MIC was 0.5 µg/mL (≈ 0.46 µM).

Q: And the MIC (C. difficile; Culture # 2529)?
A: Its MIC is 0.5 µg/mL (≈ 0.46 µM).

Q: What about the MIC (Fusobacterium species) of the same molecule?
A: The MIC was > 2 µg/mL.

Q: And the MIC (Fusobacterium nucleatum)?
A: The MIC was > 2 µg/mL.

Q: And the MIC (C. ramosum)?
A: Its MIC is > 2 µg/mL.

Q: And the MIC (P. magnus)?
A: The MIC was > 2 µg/mL.

Q: And the MIC (Propionibacterium acnes)?
A: The MIC was > 2 µg/mL.

Q: What about the MIC (P. anaerobius) of the same molecule?
A: Its MIC is > 2 µg/mL.

Q: And the MIC (B. bivius)?
A: The MIC was > 2 µg/mL.

Q: And the MIC (Candida albicans)?
A: The MIC was > 100 µg/mL.

Q: What about the MIC (Micrococcus luteus; Culture # 2493) of the same molecule?
A: The MIC was 0.1 µg/mL (≈ 0.0921 µM).

Q: What about the MIC (Micrococcus luteus; Culture # 2517) of the same molecule?
A: Its MIC is 0.1 µg/mL (≈ 0.0921 µM).

Q: And the MIC (Enterobacter aerogenes)?
A: The MIC was > 100 µg/mL.

Q: And the MIC (Streptococcus bovis)?
A: Its MIC is > 100 µg/mL.

Q: And the MIC (Bacteriodes fragilis; Culture # 1756, Wilkins-Chalgren agar, 37° C., 48 hours)?
A: Its MIC is > 2 µg/mL.

Q: And the MIC (Bacteriodes fragilis; Culture # 1757)?
A: The MIC was > 2 µg/mL.

Q: And the MIC (Bacteriodes fragilis; Culture # 1758)?
A: The MIC was > 2 µg/mL.

Q: What about the MIC (Bacteriodes fragilis; Culture # 1999) of the same molecule?
A: The MIC was > 2 µg/mL.
